Data taken from patent US20110166121A1 (LG LIFE SCIENCES LTD., priority 2008, published 2011).
pKi: −log10 of the molar value.

Each compound was assayed on Human platelet aggregation caused by ADP (assay: Inhibition of ADP-induced platelet aggregation (Mimic-human PRP)). Settings: 20 μM ADP, human platelet concentrate diluted with PPP, absorption at 595 nm.
Assay type: cell-based
In short: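 Ki came from non-linear sigmoidal fits of inhibition, measured as the 3-min rise in absorbance at 595 nm after 20 μM ADP, relative to 0/20 μM ADP controls. Platelets (3–4×10^8/mL in PPP-diluted human PRP) were exposed to 0.01–30 μM compound for 20 min at room temperature beforehand.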

Structure (SMILES)	pKi
CCCc1cc2c(N3CCn4c(nnc4C(F)(F)F)C3)nc(OCCC#N)nc2s1 [Example 9-71, 3-[6-Propyl-4-(3-trifluoromethyl-5,6-dihydro-8H-[1,2,4]triazolo[4,3-a]pyrazin-7-yl)-thieno[2,3-d]pyrimidin-2-yloxy]-propionitrile]	9.15
CCCc1cc2c(N3CCn4c(nnc4C(F)(F)F)C3)nc(NC[C@H]3CCN(C(C)=O)C3)nc2s1 [Example 8-22, 1-((R)-3-{[6-Propyl-4-(3-trifluoromethyl-5,6-dihydro-8H-[1,2,4]triazolo[4,3-a]pyrazin-7-yl)-thieno[2,3-d]pyrimidin-2-ylamino]-methyl}-pyrrolidin-1-yl)-ethanone]	6.66
CCCc1cc2c(N3CCn4c(nnc4C(F)(F)F)C3)nc(-n3cncn3)nc2s1 [Example 9-43, 7-(6-Propyl-2-[1,2,4]triazol-1-yl-thieno[2,3-d]pyrimidin-4-yl)-3-trifluoromethyl-5,6,7,8-tetrahydro-[1,2,4]triazolo[4,3-a]pyrazine]	6.48
CCCc1cc2c(N3CCn4c(nnc4C(F)(F)F)C3)nc(OCCn3cncn3)nc2s1 [Example 9-44, 7-[6-Propyl-2-(2-[1,2,4]triazol-1-yl-ethoxy)-thieno[2,3-d]pyrimidin-4-yl]-3-trifluoromethyl-5,6,7,8-tetrahydro-[1,2,4]triazolo[4,3-a]pyrazine]	8.01
CCCc1cc2c(N3CCn4c(nnc4C(F)(F)F)C3)nc(OCCN(CC(=O)O)C(=O)C3CC3)nc2s1 [Example 3-57, (Cyclopropanecarbonyl-{2-[6-propyl-4-(3-trifluoromethyl-5,6-dihydro-8H-[1,2,4]triazolo[4,3-a]pyrazin-7-yl)-thieno[2,3-d]pyrimidin-2-yloxy]-ethyl}-amino)-acetic acid]	7.64
CCCc1cc2c(N3CCn4c(nnc4C(F)(F)F)C3)nc(OC(C)CNC=O)nc2s1 (centres unmarked) [Example 9-74, N-{2-[6-Propyl-4-(3-trifluoromethyl-5,6-dihydro-8H-[1,2,4]triazolo[4,3-a]pyrazin-7-yl)-thieno[2,3-d]pyrimidin-2-yloxy]-propyl}-formamide]	8.42
CCCc1cc2c(N3CCn4c(nnc4C(F)(F)F)C3)nc(OCCF)nc2s1 [Example 9-83, 7-[2-(2-Fluoro-ethoxy)-6-propyl-thieno[2,3-d]pyrimidin-4-yl]-3-trifluoromethyl-5,6,7,8-tetrahydro-[1,2,4]triazolo[4,3-a]pyrazine]	9.52
CCCC(=O)NC[C@@H]1CCN(c2nc(N3CCn4c(nnc4C(F)(F)F)C3)c3cc(CCC)sc3n2)C1 [Example 8-2, N-{(S)-1-[6-Propyl-4-(3-trifluoromethyl-5,6-dihydro-8H-[1,2,4]triazolo[4,3-a]pyrazin-7-yl)-thieno[2,3-d]pyrimidin-2-yl]-pyrrolidin-3-ylmethyl}-butyramide]	6.96
CCCc1cc2c(N3CCn4c(nnc4C(F)(F)F)C3)nc(N3CC[C@H](NC(C)=O)C3)nc2s1 [Example 1-105, N-{(S)-1-[6-Propyl-4-(3-trifluoromethyl-5,6-dihydro-8H-[1,2,4]triazolo[4,3-a]pyrazin-7-yl)-thieno[2,3-d]pyrimidin-2-yl]-pyrrolidin-3-yl}-acetamide]	8.36
CCCc1cc2c(N3CCn4c(nnc4C(F)(F)F)C3)nc(N3CC[C@H](NC(=O)Cc4ccccn4)C3)nc2s1 [Example 1-121, N-{(S)-1-[6-Propyl-4-(3-trifluoromethyl-5,6-dihydro-8H-[1,2,4]triazolo[4,3-a]pyrazin-7-yl)-thieno[2,3-d]pyrimidin-2-yl]-pyrrolidin-3-yl}-2-pyridin-2-yl-acetamide]	7.72
CCCc1cc2c(N3CCn4c(nnc4C(F)(F)F)C3=O)nc(OCCC(=O)O)nc2s1 [Example 9-59, 3-[4-(8-Oxo-3-trifluoromethyl-5,6-dihydro-8H-[1,2,4]triazolo[4,3-a]pyrazin-7-yl)-6-propyl-thieno[2,3-d]pyrimidin-2-yloxy]-propionic acid]	< 5.00
CCCc1cc2c(N3CCn4c(nnc4C(F)(F)F)C3)nc(N3CC[C@H](NC(=O)c4ccc(Cl)s4)C3)nc2s1 [Example 9-11, 5-Chloro-thiophene-2-carboxylic Acid {(S)-1-[6-propyl-4-(3-trifluoromethyl-5,6-dihydro-8H-[1,2,4]triazolo[4,3-a]pyrazin-7-yl)-thieno[2,3-d]pyrimidin-2-yl]-pyrrolidin-3-yl}-amide]	7.32
CCCc1cc2c(N3CCn4c(nnc4C(F)(F)F)C3)nc(OCCC(=O)N3CCCC3)nc2s1 [Example 9-68, 3-[6-Propyl-4-(3-trifluoromethyl-5,6-dihydro-8H-[1,2,4]triazolo[4,3-a]pyrazin-7-yl)-thieno[2,3-d]pyrimidin-2-yloxy]-1-pyrrolidin-1-yl-propan-1-one]	6.59
CCCc1cc2c(N3CCn4c(nnc4C(F)(F)F)C3)nc(OCCNC(=O)C(F)(F)F)nc2s1 [Example 3-61, 2,2,2-Trifluoro-N-{2-[6-propyl-4-(3-trifluoromethyl-5,6-dihydro-8H-[1,2,4]triazolo[4,3-a]pyrazin-7-yl)-thieno[2,3-d]pyrimidin-2-yloxy]-ethyl}-acetamide]	8.27
CCCc1cc2c(N3CCn4c(nnc4C(F)(F)F)C3)nc(OC[C@@H]3CCCN3C(=O)C(C)C)nc2s1 [Example 8-33, 2-Methyl-1-{(S)-2-[6-propyl-4-(3-trifluoromethyl-5,6-dihydro-8H-[1,2,4]triazolo[4,3-a]pyrazin-7-yl)-thieno[2,3-d]pyrimidin-2-yloxymethyl]-pyrrolidin-1-yl}-propan-1-one]	7.37
CCCc1cc2c(N3CCn4c(nnc4C(F)(F)F)C3)nc(Nc3cn[nH]c3)nc2s1 [Example 9-58, [6-Propyl-4-(3-trifluoromethyl-5,6-dihydro-8H-[1,2,4]triazolo[4,3-a]pyrazin-7-yl)-thieno[2,3-d]pyrimidin-2-yl]-(1H-pyrazol-4-yl)-amine]	7.66
CCCc1cc2c(N3CCn4c(nnc4C(F)(F)F)C3)nc(N3CC[C@@H](CNC(C)=O)C3)nc2s1 [Example 8-1, N-{(S)-1-[6-Propyl-4-(3-trifluoromethyl-5,6-dihydro-8H-[1,2,4]triazolo[4,3-a]pyrazin-7-yl)-thieno[2,3-d]pyrimidin-2-yl]-pyrrolidin-3-ylmethyl}-acetamide]	7.46
CCCc1cc2c(N3CCn4c(nnc4C(F)(F)F)C3)nc(N3CC[C@H](C(=O)NC4CCCC4)C3)nc2s1 [Example 9-64, (S)-1-[6-Propyl-4-(3-trifluoromethyl-5,6-dihydro-8H-[1,2,4]triazolo[4,3-a]pyrazin7-yl)-thieno[2,3-d]pyrimidin-2-yl]-pyrrolidine-3-carboxylic acid cyclopentylamide]	5.85
CCCc1cc2c(N3CCn4c(nnc4C(F)(F)F)C3)nc(N3CC4N=COC4C3)nc2s1 (centres unmarked) [Example 9-34, 7-[6-Propyl-2-(3a,4,6,6a-tetrahydro-pyrrolo[3,4-d]oxazol-5-yl)-thieno[2,3-d]pyrimidin-4-yl]-3-trifluoromethyl-5,6,7,8-tetrahydro-[1,2,4]triazolo[4,3-a]pyrazine]	7.82
CCCc1cc2c(N3CCn4c(nnc4C(F)(F)F)C3)nc(N3CC[C@H](NC(=O)NS(=O)(=O)c4ccc(Cl)s4)C3)nc2s1 [Example 9-17]	7.72
